Measurements reported in patent publication US20150191445A1, “ACYL-HYDRAZONE AND OXADIAZOLE COMPOUNDS, PHARMACEUTICAL COMPOSITIONS CONTAINING THE SAME AND USES THEREOF” (Universidade Federal de Santa Catarina, priority 2011, published 2015).
Entries after “also recorded” stand apart in the source; their conditions may differ.

Tests used:
[1] = target: Trypanosoma cruzi cruzain (Trypanosoma cruzi, UniProt P25779); details: cited from earlier work
[2] = test system: human leukemic Jurkat cells and HEK; test: Screening of compounds by cell viability assay (MTT) in leukemic cells; format: cell-based; details: leukemic cells of Jurkat and HEK strains
Description: RPMI-1640 medium with 10% FBS (fetal bovine serum), 100 IU/mL penicillin, 100 µg/mL streptomycin and incubated at 37° C. and 5% CO2. Cytotoxicity assays were performed according to the method described in the literature (Pieters, R.; et al. In vitro drug sensitivity of cells from children with leukemia using the MTT assay with improved culture conditions. Blood, 1990, 76, 2327-2336; Pieters, R.; et al. Relation of cellular drug resistance to long-term clinical outcome in childhood acute lymphoblastic leukaemia. Lancet, 1991, 338, 399-403 e Kaspers, G. J.; et al. In vitro cellular drug resistance and prognosis in newly diagnosed childhood acute lymphoblastic leukemia. Blood, 1997, 90, 2723). Cells were resuspended at a concentration of 3.75 10^5 cells/mL in culture medium as described. Eighty microliters of this suspension were seeded into plates with 96 round-bottom wells, containing 20 microliters of different concentrations of compound or vehicle alone. Each treatment was done in triplicate. […] After incubating overnight, absorbance reading at 570 nm was carried out. The percentage of cells surviving the treatment were calculated relative to the number of surviving cells in the medium without addition of the compounds in question (“negative control”). […]

Jurkat cells = test: MTT cytotoxicity assay, Jurkat cell line; format: cell-based, human; details: 48 h of treatment, read-out: IC50 T (Jurkat)
Description: (§1) All compounds were resuspended in DMSO at stock concentration of 20 mM and stored at −20° C. For cytotoxicity testing, the dilutions from the stock solutions were made in culture medium (RPMI-1640 plus 10% of fetal bovine serum, 100 IU/ml penicillin and 100 µg/mL Streptomycin), immediately before being discharged to the cells.
(§2) The REH and Jurkat cell lines were maintained in
(§3) RPMI-1640 medium with 10% FBS (fetal bovine serum), 100 IU/mL penicillin, 100 µg/mL streptomycin and incubated at 37° C. and 5% CO2. Cytotoxicity assays were performed according to the method described in the literature (Pieters, R.; et al. In vitro drug sensitivity of cells from children with leukemia using the MTT assay with improved culture conditions. Blood, 1990, 76, 2327-2336; Pieters, R.; et al. Relation of cellular drug resistance to long-term clinical outcome in childhood acute lymphoblastic leukaemia. Lancet, 1991, 338, 399-403 e Kaspers, G. J.; et al. In vitro cellular drug resistance and prognosis in newly diagnosed childhood acute lymphoblastic leukemia. Blood, 1997, 90, 2723). Cells were resuspended at a concentration of 3.75 10^5 cells/mL in culture medium as described. Eighty microliters of this suspension were seeded into plates with 96 round-bottom wells, containing 20 microliters of different concentrations of compound or vehicle alone. Each treatment was done in triplicate. After 48 hours of incubation at 37° C. and 5% CO2, 20 μL of MTT solution was added (5 mg/mL of 1x PBS), followed by further incubation for 4 hours and 30 minutes at 37° C. and 5% CO2. During these 4 hours and 30 minutes, MTT (yellowish) is metabolized to formazan salt (bluish in color) by living cells. After this, 100 μL sodium dodecyl sulphate (SDS) 10%+0.1M of HCl were added to dissolve the formazan crystals. After incubating overnight, absorbance reading at 570 nm was carried out. The percentage of cells surviving the treatment were calculated relative to the number of surviving cells in the medium without addition of the compounds in question (“negative control”).
(§4) c) Determination of IC: IC50 is defined as the concentration of a compound at which 50% of maximal inhibition is obtained. After reading the absorbance, survival curves were constructed and the values of IC50 were obtained with the GraphPad Prism software.

REH cells = test: MTT cytotoxicity assay, REH cell line; format: cell-based, human; details: 48 h of treatment
Description: as §1, §2, §3, §4

[3] = test system: healthy and phytohemagglutinin-stimulated lymphocytes; test: MTT assay on normal lymphocytes stimulated with phytohemagglutinin; format: cell-based, human; details: for Percentage of survival: 48 h, MTT
Description: for the test of compound 07 against normal lymphocytes, blood from human donors was separated in a ficoll gradient and the mononuclear cells were cultivated at 200,000 cells/well, in 80 microliters of RPMI-1640 (containing 10% FBS, 100 IU/mL penicillin and 100 μg/mL streptomycin) and 20 microliters of phytohemagglutinin solution (Cultilab) in each well for stimulation of T lymphocytes. Compound 07 was added in serial dilutions (50%) from 300 to 1 nm. As a control, parallel tests were run with cells from leukemic Jurkat and REH cell lines, and experiments with colchicine with the same concentrations as compound 07. Cytotoxicity was assessed after 48 hours by the MTT method, as described Above.

Trypanosoma cruzi cruzain, sequence (P25779 123-467): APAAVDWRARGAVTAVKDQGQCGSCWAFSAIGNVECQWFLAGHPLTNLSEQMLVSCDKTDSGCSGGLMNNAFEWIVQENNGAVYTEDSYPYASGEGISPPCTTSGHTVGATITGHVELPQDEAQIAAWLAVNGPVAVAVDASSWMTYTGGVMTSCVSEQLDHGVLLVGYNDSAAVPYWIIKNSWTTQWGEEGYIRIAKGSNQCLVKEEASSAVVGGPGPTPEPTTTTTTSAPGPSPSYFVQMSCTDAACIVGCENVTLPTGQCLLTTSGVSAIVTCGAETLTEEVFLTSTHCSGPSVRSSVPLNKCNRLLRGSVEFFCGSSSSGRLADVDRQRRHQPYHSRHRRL

Row | Compound | melting point | IC50 (Jurkat cells) | IC50 (REH cells) | other results
1 | COc1cc(C(=O)NN=Cc2ccc(Br)cc2)cc(OC)c1OC [Compound 02] | – | 31.4 nM | 33.7 nM | inhibitory activity of cruzain [1]: did not show inhibitory activity; antileukemic activity [2]: excellent antileukemic activity; also recorded: significant antileukemic activity
2 | COc1cc(C(=O)NN=Cc2ccc(Cl)cc2)cc(OC)c1OC [Compound 09] | – | 203 nM | 328 nM | –
3 | COc1cc(C(=O)NN=Cc2ccc3c(c2)OCO3)cc(OC)c1OC [Compound 10] | – | 154 nM | 206 nM | –
4 | COc1cc(C(=O)NN=Cc2ccccc2Cl)cc(OC)c1OC [Compound 11] | – | 189 nM | 459 nM | –
5 | COc1cc(C(=O)NN=Cc2ccc(C)cc2)cc(OC)c1OC [Compound 16] | – | 71.5 nM | 70.6 nM | –
6 | COc1cc(C2=NN(C(C)=O)C(c3cccc4ccccc34)O2)cc(OC)c1OC (stereo not drawn) [Compound 38] | 189 to 192 °C | – | – | –
7 | Colchicine [reference compound] | – | 7.7 nM | 9.5 nM | Percentage of survival ([3]; 4.6 nM): 109%; Percentage of survival ([3]; 9.38 nM): 110%; Percentage of survival ([3]; 18.75 nM): 95%; Percentage of survival ([3]; 37.5 nM): 84%; Percentage of survival ([3]; 75 nM): 75%; Percentage of survival ([3]; 150 nM): 69%; toxicity relative to the control / inhibition on the viability of lymphocytes T ([3]; 300 nM): 37%; Percentage of survival ([3]; 300 nM): 63%

The next lines start with results.

Row | melting point | Compound | IC50 (Jurkat cells) | IC50 (REH cells) | other results
8 | 247 to 248 °C | COc1cc(/C=N/NC(=O)c2cc(OC)c(OC)c(OC)c2)cc(I)c1O [Compound 05] | – | – | –
9 | 230 to 231 °C | COc1cc(C(=O)N/N=C/c2cnc[nH]2)cc(OC)c1OC [Compound 17] | – | – | –
10 | 245 to 246 °C | COc1cccc(OC)c1/C=N/NC(=O)c1cc(OC)c(OC)c(OC)c1 [Compound 21] | – | – | –
11 | 206 to 208 °C | COc1cc(C(=O)N/N=C/c2ccc(Br)cc2O)cc(OC)c1OC [Compound 26] | – | – | –
12 | 203 to 204 °C | COc1cc(C(=O)N/N=C/c2ccc(Cl)c(C(F)(F)F)c2)cc(OC)c1OC [Compound 29] | – | – | –
13 | 177 to 179 °C | COc1cc(C2OC(c3cc(OC)c(OC)c(OC)c3)=NN2C(C)=O)cc(Br)c1O (stereo not drawn) [Compound 36] | – | – | –
14 | 170 to 172 °C | COc1cc(C2OC(c3cc(OC)c(OC)c(OC)c3)=NN2C(C)=O)ccc1O (stereo not drawn) [Compound 37] | – | – | –
